Measured values: PubChem BioAssay (NCI)
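A five-concentration, 48-hour dose response in 96-well plates underlies each endpoint, interpolated linearly between surrounding concentrations. GI50 marks 50% less growth. At the TGI there is no net growth.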

What was measured:
Assay in all cases: NCI tumour cell line growth inhibition, 48 h
OVCAR-5 ovarian = system: OVCAR-5 ovarian
SF-295 CNS = system: SF-295 CNS
HT29 colon = system: HT29 colon
BT-549 breast = system: BT-549 breast
A549 NSCLC = system: A549 NSCLC
SNB-19 CNS = system: SNB-19 CNS
NCI-H522 lung = system: NCI-H522 lung
OVCAR-8 ovarian = system: OVCAR-8 ovarian
T-47D breast = system: T-47D breast
UACC-257 melanoma = system: UACC-257 melanoma
TK-10 renal = system: TK-10 renal
MDA-MB-231 breast = system: MDA-MB-231 breast
786-0 renal = system: 786-0 renal
SN12C renal = system: SN12C renal
MALME-3M melanoma = system: MALME-3M melanoma
SF-268 CNS = system: SF-268 CNS
U251 CNS = system: U251 CNS
MCF7 breast = system: MCF7 breast
UO-31 renal = system: UO-31 renal
KM12 colon = system: KM12 colon
HS 578T breast = system: HS 578T breast
DU-145 prostate = system: DU-145 prostate
LOX IMVI melanoma = system: LOX IMVI melanoma
HOP-62 NSCLC = system: HOP-62 NSCLC
SK-MEL-2 melanoma = system: SK-MEL-2 melanoma
MDA-MB-435 = system: MDA-MB-435
OVCAR-3 ovarian = system: OVCAR-3 ovarian
SK-MEL-28 melanoma = system: SK-MEL-28 melanoma
PC-3 prostate = system: PC-3 prostate
NCI-H460 lung = system: NCI-H460 lung

C[C@@H]1Cc2c([nH]c3ccccc23)[C@@H](c2c(F)cc(NC3CN(CCCF)C3)cc2F)N1CC(F)(F)CO
TGI (OVCAR-5 ovarian): 27.9 µM | GI50 (SF-295 CNS): 2.25 µM | TGI (SF-295 CNS): 5.21 µM | GI50 (HT29 colon): 3.7 µM | TGI (HT29 colon): 15.3 µM | GI50 (BT-549 breast): 2.05 µM | TGI (BT-549 breast): 4.04 µM | GI50 (A549 NSCLC): 9.91 µM | TGI (A549 NSCLC): 28.7 µM | GI50 (SNB-19 CNS): 10.3 µM | TGI (SNB-19 CNS): 23.6 µM | GI50 (NCI-H522 lung): 4.16 µM | TGI (NCI-H522 lung): 16.7 µM | GI50 (OVCAR-8 ovarian): 11.7 µM | TGI (OVCAR-8 ovarian): 33 µM | GI50 (T-47D breast): 1.06 µM | TGI (T-47D breast): 18.5 µM | GI50 (UACC-257 melanoma): 1.97 µM | TGI (UACC-257 melanoma): 4.51 µM | GI50 (TK-10 renal): 14.4 µM | TGI (TK-10 renal): 29.3 µM | GI50 (MDA-MB-231 breast): 5.24 µM | TGI (MDA-MB-231 breast): 20.8 µM | GI50 (786-0 renal): 8.68 µM | TGI (786-0 renal): 24.7 µM | GI50 (SN12C renal): 9.69 µM | TGI (SN12C renal): 23.1 µM | GI50 (MALME-3M melanoma): 1.77 µM | TGI (MALME-3M melanoma): 3.72 µM | GI50 (SF-268 CNS): 4.78 µM | TGI (SF-268 CNS): 19.5 µM | GI50 (U251 CNS): 6.1 µM | TGI (U251 CNS): 21.2 µM | TGI (MCF7 breast): 4.27 µM | GI50 (UO-31 renal): 3.7 µM | TGI (UO-31 renal): 16.5 µM | GI50 (KM12 colon): 4.21 µM | TGI (KM12 colon): 18 µM | GI50 (HS 578T breast): 3.73 µM | TGI (HS 578T breast): 19.1 µM | GI50 (DU-145 prostate): 6.52 µM | TGI (DU-145 prostate): 20.2 µM | GI50 (LOX IMVI melanoma): 1.75 µM | TGI (LOX IMVI melanoma): 3.49 µM | GI50 (HOP-62 NSCLC): 13.6 µM | TGI (HOP-62 NSCLC): 31.1 µM | GI50 (SK-MEL-2 melanoma): 4.37 µM | TGI (SK-MEL-2 melanoma): 16.5 µM | GI50 (MDA-MB-435): 3.89 µM | TGI (MDA-MB-435): 15.1 µM | GI50 (OVCAR-3 ovarian): 11.3 µM | TGI (OVCAR-3 ovarian): 26.3 µM | GI50 (SK-MEL-28 melanoma): 2.45 µM | TGI (SK-MEL-28 melanoma): 6.49 µM | GI50 (PC-3 prostate): 2.35 µM | TGI (PC-3 prostate): 9.67 µM | GI50 (NCI-H460 lung): 5.19 µM | TGI (NCI-H460 lung): 19.2 µM
